{
  "source": "patent US20100041745A1",
  "about": "“Aigialomycin D and Derivatives Thereof and Their Use in Treating Cancer or Malaria or a Microbial Infection” (priority 2006, published 2010)",
  "origin": "cited, not measured here",
  "data": [
    {"smiles": "C[C@H]1C/C=C/[C@@H](O)[C@@H](O)CC/C=C/c2cc(O)cc(O)c2C(=O)O1", "note": "[aigialomycin D, Aigialomycin D]", "values": [
      {"measurement": "IC50 against P. falciparum (anti-malarial activity)", "setting": "P. falciparum", "result": 6.6, "unit": "µg/mL"},
      {"measurement": "IC50 against KB cells (antitumour activity)", "setting": "KB cells", "result": 3.0, "unit": "µg/mL"},
      {"measurement": "IC50 against Vero cells (antitumour activity)", "setting": "Vero cells", "result": 1.8, "unit": "µg/mL"}
    ]}
  ]
}
